{"source": "patent US20250160678A1", "about": "“GRAPHENE SENSOR SYSTEMS FOR C[…] ANALYSIS” (VOCxI Health, Inc., priority 2023, published 2025)", "assay": "elimination curves of cannabinoids after ingestion (FIG. 2)", "format": "in vivo", "conditions": "time of Test 2 (which may be two hours after cannabinoid ingestion)", "text": "Referring now to FIG. 1, a chart is shown of elimination curves of various cannabinoids. […] The relative amounts of cannabinoid metabolites (e.g., intermediate or final breakdown products of cannabinoid compounds in the body) will also vary with time after an ingestion event.\nAs previously referenced, the relative amounts of one cannabinoid compound to another and/or metabolites thereof will vary with time after an ingestion event because their different half-lives in the body. As such, a pattern of compounds captured with a system herein at time point that is closer to the time of ingestion will be different than a pattern of compounds captured at a later time. Referring now to FIG. 2, a chart is shown of elimination curves of various cannabinoids. […] In this example, exemplary test times are shown in the form of Test 1, Test 2, and Test 3, with each test being progressively spaced out farther away in time from the time of ingestion. […] Because of this, patterns as identified by systems herein are different at each test time. For example, at the time of Test 1 (which may be a half-hour after cannabinoid ingestion) the amount of CBN is roughly 80 to 90 percent of the amount of THC. In contrast, at the time of Test 2 (which may be two hours after cannabinoid ingestion) the amount of CBN is only about 50 percent of the amount of THC. […]"}
{"smiles": "CCCCCc1cc(O)c2c(c1)OC(C)(C)c1ccc(C)cc1-2", "note": "[CBN, cannabinol]", "values": [{"measurement": "amount of CBN as percent of the amount of THC", "value": "about 50%"}]}
